The supplement of paper PMC11061612

Assays:
Capivasertib = compound: C1CN(CCC1(C(=O)N[C@@H](CCO)C2=CC=C(C=C2)Cl)N)C3=NC=NC4=C3C=CN4 [Capivasertib]; conditions: max 10 µM
Outline: (§1)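 In 1536-well plates, cancer cell lines in 7.5 μl DMEM/F12 or RPMI with 10% FBS spent 24 hours at 37°C and 5% CO2 and were then dosed for 72 hours with final DMSO typically 0.2%. Viability was read by CellTiter-Glo 2.0 luminescence and scaled between blank-well and DMSO-well means. The single-agent IC50 was fitted from dose responses using a logistic curve in a non-linear mixed effects model, and that logistic curve had two parameters.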

AZD1775 = compound: C=CCn1c(=O)c2cnc(Nc3ccc(N4CCN(C)CC4)cc3)nc2n1-c1cccc(C(C)(C)O)n1 [AZD1775]; conditions: max 3 µM
Outline: as §1

Trametinib = compound: CC(=O)Nc1cccc(-n2c(=O)n(C3CC3)c(=O)c3c(Nc4ccc(I)cc4F)n(C)c(=O)c(C)c32)c1 [Trametinib]; conditions: max 1 µM
Outline: as §1

Palbociclib = compound: CC(=O)c1c(C)c2cnc(Nc3ccc(N4CCNCC4)cn3)nc2n(C2CCCC2)c1=O [Palbociclib]; conditions: max 10 µM
Outline: as §1

AZD1390 = compound: CC(C)n1c(=O)n(C)c2cnc3cc(F)c(-c4ccc(OCCCN5CCCCC5)nc4)cc3c21 [AZD1390]; conditions: max 0.3 µM
Outline: as §1

Venetoclax = compound: CC1(C)CCC(CN2CCN(c3ccc(C(=O)NS(=O)(=O)c4ccc(NCC5CCOCC5)c([N+](=O)[O-])c4)c(Oc4cnc5[nH]ccc5c4)c3)CC2)=C(c2ccc(Cl)cc2)C1 [Venetoclax]; conditions: max 1 µM
Outline: as §1

Dasatinib = compound: CC1=C(C(=CC=C1)Cl)NC(=O)C2=CN=C(S2)NC3=CC(=NC(=N3)C)N4CCN(CC4)CCO [Dasatinib]; conditions: max 2 µM
Outline: as §1

SG3199 = compound: CC1=CN2[C@@H](C1)C=NC3=CC(=C(C=C3C2=O)OC)OCCCCCOC4=C(C=C5C(=C4)N=C[C@@H]6CC(=CN6C5=O)C)OC [SG3199]; conditions: max 0.001 µM
Outline: as §1

AZD2811 = compound: CCN(CCO)CCCOc1ccc2c(Nc3cc(CC(=O)Nc4cccc(F)c4)[nH]n3)ncnc2c1 [AZD2811]; conditions: max 1 µM
Outline: as §1

SN-38 = compound: CCc1c2c(nc3ccc(O)cc13)-c1cc3c(c(=O)n1C2)COC(=O)[C@]3(O)CC [SN-38]; conditions: max 0.3 µM
Outline: as §1

AZD0156 = compound: CN(C)CCCOc1ccc(-c2ccc3ncc4c(c3c2)n(C2CCOCC2)c(=O)n4C)cn1 [AZD0156]; conditions: max 3 µM
Outline: as §1

AZD4320 = compound: CN(CC[C@H](CSC1=CC=CC=C1)NC2=C(C=C(C=C2)S(=O)(=O)NC(=O)C3=CC=C(C=C3)N4CCC(CC4)[C@H](C5=CC=CC=C5C6=CC=C(C=C6)Cl)O)S(=O)(=O)C(F)(F)F)CCO [AZD4320]; conditions: max 1 µM
Outline: as §1

Alisertib = compound: COc1cc(Nc2ncc3c(n2)-c2ccc(Cl)cc2C(c2c(F)cccc2OC)=NC3)ccc1C(=O)O [Alisertib]; conditions: max 10 µM
Outline: as §1

Gefitinib = compound: COc1cc2ncnc(Nc3ccc(F)c(Cl)c3)c2cc1OCCCN1CCOCC1 [Gefitinib]; conditions: max 10 µM
Outline: as §1

Prexasertib = compound: COc1cccc(OCCCN)c1-c1cc(Nc2cnc(C#N)cn2)n[nH]1 [Prexasertib]; conditions: max 1 µM
Outline: as §1

Doxorubicin = compound: COc1cccc2c1C(=O)c1c(O)c3c(c(O)c1C2=O)C[C@@](O)(C(=O)CO)C[C@@H]3O[C@H]1C[C@H](N)[C@H](O)[C@H](C)O1 [Doxorubicin]; conditions: max 1 µM
Outline: as §1

AZD5153 = compound: COc1nnc2ccc(N3CCC(c4ccc(OCCN5CCN(C)C(=O)[C@H]5C)cc4)CC3)nn12 [AZD5153]; conditions: max 1 µM
Outline: as §1

Lapatinib = compound: CS(=O)(=O)CCNCc1ccc(-c2ccc3ncnc(Nc4ccc(OCc5cccc(F)c5)c(Cl)c4)c3c2)o1 [Lapatinib]; conditions: max 10 µM
Outline: as §1

AZD8186 = compound: C[C@@H](Nc1cc(F)cc(F)c1)c1cc(C(=O)N(C)C)cc2c(=O)cc(N3CCOCC3)oc12 [AZD8186]; conditions: max 3 µM
Outline: as §1

Crizotinib = compound: C[C@@H](Oc1cc(-c2cnn(C3CCNCC3)c2)cnc1N)c1c(Cl)ccc(F)c1Cl [Crizotinib]; conditions: max 10 µM
Outline: as §1

Savolitinib = compound: C[C@@H](c1ccc2nccn2c1)n1nnc2ncc(-c3cnn(C)c3)nc21 [Savolitinib]; conditions: max 1 µM
Outline: as §1

AZD6738 = compound: C[C@@H]1COCCN1C2=NC(=NC(=C2)C3(CC3)[S@](=N)(=O)C)C4=C5C=CNC5=NC=C4 [AZD6738]; conditions: max 10 µM
Outline: as §1

AZD5991 = compound: Cc1c2c(nn1C)CSCc1cc(n(C)n1)CSc1cc(c3ccccc3c1)OCCCc1c(C(=O)O)n(C)c3c-2c(Cl)ccc13 [AZD5991]; conditions: max 1 µM
Outline: as §1

AZD7648 = compound: Cc1cc2ncnn2cc1Nc1ncc2c(n1)n(C1CCOCC1)c(=O)n2C [AZD7648]; conditions: max 10 µM
Outline: as §1

Taselisib = compound: Cc1nc(-c2cn3c(n2)-c2ccc(-c4cnn(C(C)(C)C(N)=O)c4)cc2OCC3)n(C(C)C)n1 [Taselisib]; conditions: max 10 µM
Outline: as §1

Selumetinib = compound: Cn1cnc2c(F)c(Nc3ccc(Br)cc3Cl)c(C(=O)NOCCO)cc21 [Selumetinib]; conditions: max 10 µM
Outline: as §1

Olaparib = compound: O=C(c1cc(Cc2n[nH]c(=O)c3ccccc23)ccc1F)N1CCN(C(=O)C2CC2)CC1 [Olaparib]; conditions: max 10 µM
Outline: as §1

MK-2206 = compound: NC1(c2ccc(-c3nc4ccn5c(=O)[nH]nc5c4cc3-c3ccccc3)cc2)CCC1 [MK-2206]; conditions: max 10 µM
Outline: as §1

Row | Cell Line | IC50, cell viability 72 h (Capivasertib) [µM] | IC50, cell viability 72 h (AZD1775) [µM] | IC50, cell viability 72 h (Trametinib) [µM] | IC50, cell viability 72 h (Palbociclib) [µM] | IC50, cell viability 72 h (AZD1390) [µM] | IC50, cell viability 72 h (Venetoclax) [µM] | IC50, cell viability 72 h (Dasatinib) [µM] | IC50, cell viability 72 h (SG3199) [µM] | IC50, cell viability 72 h (AZD2811) [µM] | IC50, cell viability 72 h (SN-38) [µM] | IC50, cell viability 72 h (AZD0156) [µM] | IC50, cell viability 72 h (AZD4320) [µM] | IC50, cell viability 72 h (Alisertib) [µM] | IC50, cell viability 72 h (Gefitinib) [µM] | IC50, cell viability 72 h (Prexasertib) [µM] | IC50, cell viability 72 h (Doxorubicin) [µM] | IC50, cell viability 72 h (AZD5153) [µM] | IC50, cell viability 72 h (Lapatinib) [µM] | IC50, cell viability 72 h (AZD8186) [µM] | IC50, cell viability 72 h (Crizotinib) [µM] | IC50, cell viability 72 h (Savolitinib) [µM] | IC50, cell viability 72 h (AZD6738) [µM] | IC50, cell viability 72 h (AZD5991) [µM] | IC50, cell viability 72 h (AZD7648) [µM] | IC50, cell viability 72 h (Taselisib) [µM] | IC50, cell viability 72 h (Selumetinib) [µM] | IC50, cell viability 72 h (Olaparib) [µM] | IC50, cell viability 72 h (MK-2206) [µM]
1 | MS751 (Cervical Carcinoma) | > 10 | 1.62 | > 1 | > 10 | > 0.3 | > 1 | > 2 | > 0.001 | > 1 | 0.0368 | > 3 | > 1 | 1.13 | > 10 | > 1 | > 1 | 0.2 | > 10 | > 3 | > 10 | > 1 | > 10 | 0.222 | > 10 | > 10 | > 10 | > 10 | 
2 | PANC-08-13 (Pancreatic Carcinoma) | > 10 | > 3 | > 1 | > 10 | > 0.3 | > 1 | > 2 | > 0.001 | > 1 | > 0.3 | > 3 | > 1 | > 10 | > 10 | 0.46 | > 1 | 0.35 | > 10 | > 3 | > 10 | > 1 | > 10 | > 1 | > 10 | 6.44 | > 10 | > 10 | 
3 | SU-DHL-8 (B-Cell Non-Hodgkin's Lymphoma) | > 10 | 0.155 | > 1 | > 10 | > 0.3 | > 1 | > 2 | > 0.001 | > 1 | 0.00304 | > 3 | 0.0387 | 6.6 | > 10 | 0.00748 | 0.107 | 0.684 | > 10 | > 3 | > 10 | > 1 | 2.06 | 0.144 | > 10 | > 10 | > 10 | > 10 | 
4 | TC-71 (Ewing's Sarcoma) | > 10 | 1.31 | > 1 | > 10 | > 0.3 | > 1 | > 2 | > 0.001 | 0.114 | 0.00221 | > 3 | 0.278 | 1.03 | > 10 | 0.0504 | 0.812 | 0.224 | > 10 | > 3 | 6.7 | > 1 | 2.74 | > 1 | > 10 | 4.2 | > 10 | > 10 | > 10
5 | TE-6 (Esophageal Squamous Cell Carcinoma) | 2.84 | > 3 | > 1 | > 10 | > 0.3 | > 1 | > 2 | > 0.001 | > 1 | > 0.3 | > 3 | > 1 | 6 | 1.75 | 0.893 | > 1 | 0.396 | 3.4 | > 3 | > 10 | > 1 | 9.32 | 0.94 | > 10 | 0.245 | > 10 | > 10 | 6.61
6 | TOV-112D (Ovarian Carcinoma) | > 10 | 1.26 | > 1 | > 10 | > 0.3 | > 1 | > 2 | > 0.001 | > 1 | 0.00803 | > 3 | > 1 | 4.32 | > 10 | 0.353 | 0.262 | 0.298 | > 10 | > 3 | > 10 | > 1 | 6.94 | > 1 | > 10 | > 10 | > 10 | > 10 | 
7 | U251 (Low Grade Glioma) | > 10 | > 3 | > 1 | > 10 | > 0.3 | > 1 | > 2 | > 0.001 | > 1 | 0.0131 | > 3 | > 1 | > 10 | > 10 | 0.323 | > 1 | > 1 | > 10 | > 3 | > 10 | > 1 | > 10 | > 1 | > 10 | > 10 | > 10 | > 10 | > 10
